{"source": "patent US20240075093A1", "about": "“COMPOSITIONS AND METHODS OF TREATING A PI3K MEDIATED DISEASE” (VIRGINIA TECH INTELLECTUAL PROPERTIES, INC., priority 2020, published 2024)", "key": {"PI3K in SK-MEL-147 cells": {"tested_on": "PI3K in SK-MEL-147 cells", "test": "PI3K activity in melanoma cells (immunoblotting)", "type": "cell-based", "details": "10 μM AZD6482"}, "p110β^hyper cells": {"tested_on": "p110β^hyper cells", "test": "melanoma cell viability (CellTiter Blue)", "type": "cell-based", "details": "0-40 μM of inhibitors; for selective inhibition of cell viability: p110β^hyper cells versus MelST", "experimental": "(§1) (FIG. 49A) Immunoblotting of p110s and signaling molecules. 3-actin (ACTB) was used as the loading control. (FIG. 49B) Summary of genetic mutations and protein levels in melanoma cells. Information regarding hot spot mutations was retrieved from e.g., DepMap. (FIG. 49C) Cells were treated with 0-40 μM of inhibitors. Cell viability was measured using CellTiter Blue. IC50s were calculated using Graphpad.\n(§2) (FIG. 52A) Cells were treated with 10 μM Selectide-18-FITC for 1 h and imaged immediately or after 96h. (FIG. 52B) Selectide-18-FITC in melanoma cells were imaged at different times. FITC was quantified using Image J and FITC intensities at different times were normalized with that at 1 h. Half-life was calculated using GraphPad. (FIG. 52C) UACC-62, MelST, or MeWo cells were treated with 50 μM of Selectide-18 for 4 days with daily repeated dosing. (FIG. 52D) MelST or melanoma cells were treated with 50 μM of Selectide-18 for 6 days with daily repeated dosing. Cell viability was measured using Cell-Titer Blue. (FIG. 52E) MelST, UACC-62, or MeWo cells were treated with Scramble or Selectide-18 at different doses. IC50s were calculated using GraphPad. (FIG. 52F) Nod scid mice bearing UACC-62 subcutaneous tumors were treated with Selectide-18 (3 mg/kg) intratumoral injection/daily) for 16 days. Tumors were measured using a caliper and tumor volumes were calculated as (length×width2))/2. Student t test or ANOVA was used to determine P values. ns: not significant; **: P<0.01; ***P<0.001."}, "MDA-MB-435S cells": {"tested_on": "MDA-MB-435S cells", "test": "melanoma cell viability (CellTiter Blue)", "type": "cell-based", "details": "0-40 μM, CellTiter Blue", "experimental": "as §1, §2"}, "PI3K in SK-MEL-94 cells": {"tested_on": "PI3K in SK-MEL-94 cells", "test": "PI3K activity in melanoma cells (immunoblotting)", "type": "cell-based", "details": "10 μM AZD6482"}, "LN229/GSCs [1]": {"tested_on": "LN229/GSCs", "test": "wound-healing (migration) assay", "type": "cell-based", "details": "8 μM, 24 hours", "experimental": "(§3) (FIG. 8A) Wound-healing assay. Cells were plated confluently and then treated with PI3K isoform-selective inhibitors at 8 μM for 24 hours. Cells were imaged at 0- and 24-hour time point. Images of 24-hour time point are shown. Scale bar: […]. (FIG. 8B-8D) Quantification of migration distance. Images from three different areas were analyzed using Image J. Migration distances were obtained by subtracting 24-hour measurements with those of 0-hour."}, "SF295 cells [2]": {"tested_on": "SF295 cells", "test": "wound-healing (migration) assay", "type": "cell-based", "details": "8 μM, 24 hours", "experimental": "as §3"}, "tumor growth in mice": {"tested_on": "tumor growth in mice", "test": "GBM tumor growth in mice", "type": "in vivo"}, "AKT": {"tested_on": "AKT", "test": "AKT activation in GBM cells", "type": "cell-based"}, "LN229/GSCs [3]": {"tested_on": "LN229/GSCs", "test": "TMZ sensitivity of LN229/GSCs", "type": "cell-based", "details": "Homo sapiens, LN-229"}, "p110b": {"molecular_target": "p110b (Homo sapiens, UniProt P42338)", "sequence (P42338 whole entry)": "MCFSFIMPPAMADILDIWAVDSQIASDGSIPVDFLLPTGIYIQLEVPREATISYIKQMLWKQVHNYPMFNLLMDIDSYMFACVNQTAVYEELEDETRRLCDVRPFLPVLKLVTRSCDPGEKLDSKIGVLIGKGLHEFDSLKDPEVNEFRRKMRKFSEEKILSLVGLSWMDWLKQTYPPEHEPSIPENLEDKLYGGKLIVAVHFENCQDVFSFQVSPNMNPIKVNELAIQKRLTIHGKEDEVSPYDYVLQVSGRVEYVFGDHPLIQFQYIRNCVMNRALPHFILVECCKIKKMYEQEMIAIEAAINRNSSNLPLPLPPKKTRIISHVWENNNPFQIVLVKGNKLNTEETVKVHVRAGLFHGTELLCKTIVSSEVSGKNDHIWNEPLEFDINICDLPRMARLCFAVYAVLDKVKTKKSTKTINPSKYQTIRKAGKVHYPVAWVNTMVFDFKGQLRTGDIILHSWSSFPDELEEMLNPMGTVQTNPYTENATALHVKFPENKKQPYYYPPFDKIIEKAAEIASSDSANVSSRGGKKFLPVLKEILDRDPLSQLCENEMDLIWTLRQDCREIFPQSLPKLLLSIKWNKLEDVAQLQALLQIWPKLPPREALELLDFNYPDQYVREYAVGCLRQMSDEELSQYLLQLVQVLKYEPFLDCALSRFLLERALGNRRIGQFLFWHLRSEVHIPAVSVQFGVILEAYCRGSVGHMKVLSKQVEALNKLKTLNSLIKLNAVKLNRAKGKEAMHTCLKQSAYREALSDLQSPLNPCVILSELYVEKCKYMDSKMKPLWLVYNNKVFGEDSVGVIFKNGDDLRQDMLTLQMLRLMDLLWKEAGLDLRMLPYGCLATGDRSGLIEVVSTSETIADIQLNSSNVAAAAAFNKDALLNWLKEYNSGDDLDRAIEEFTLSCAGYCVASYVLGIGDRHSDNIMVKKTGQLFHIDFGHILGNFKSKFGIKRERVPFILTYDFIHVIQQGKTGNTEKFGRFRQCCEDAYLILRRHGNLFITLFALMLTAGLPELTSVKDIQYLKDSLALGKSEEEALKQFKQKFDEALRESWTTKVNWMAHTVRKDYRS", "test": "p110b activity ELISA (cell-free kinase assay)", "type": "biochemical", "details": "ELISA; for activity of p110b: 100 nM, isolated protein subunit", "description": "The activity of the p110b PI3K catalytic subunit was monitored via ELISA upon increasing doses of Ante-Selectide-18.\n(§4) Relative activity is the ratio of respective treated groups to their non-treated controls.\n(FIG. 51A) 3D of a p110β/p85α complex determined by SWISS-MODEL and Cluspro. (FIG. 51B) Protein sequences were aligned using COBALT. C2 domains (top) are show. Red bars: same residues; Grey bars: different residues; Red lines: missing residues. […] in p110β C2 (bottom) is shown and termed as 018. Docking of p110β and p85α (FIG. 51C) or p110α and p85α (FIG. 51D) was done by SWISS-MODEL, Cluspro, and Chimera. The 018 motif is labeled in magenta. Deletion of β18 motif (FIG. 51E) changed the 3D shapes of p110β/p85 (FIG. 51C). (FIG. 51F) p110β cell-free kinase assay. An enzyme-linked immunosorbent assay (ELISA) was used to measure levels of lipids PIP2/PIP3. (FIG. 51G) Effect of PI3K inhibitors on p110s using ELISA. p110β (FIG. 51H) or p110α (FIG. 51I) was docked with Selectide-18-bound p85α using Cluspro/Chimera.\n(§5) Applicant also included a control scramble peptide containing the antennapedia sequence followed by the amino acid sequence of Ante-Selectide-18 randomly scrambled. […] Applicant reports that this drug is not effective at inhibiting the kinase activity of p110b or other PI3K subunits at 100 nM, showing the promise of the Ante-Selectide-18 peptide as a potent selective p110b inhibitor at a low dose."}, "[4]": {"tested_on": "PI3K/AKT signaling in SF295 cells", "test": "immunoblotting of PI3K/AKT signaling in SF295 cells", "type": "cell-based", "details": "for AKT activity: 100 μM peptide", "experimental": "SF295 cells were treated with 200 μM Ante-Selectide-18 for 4 days with a replenishment of fresh peptide every day. The vehicle was used as the control. PI3K/AKT signaling was analyzed using immunoblotting. Three signaling pathways (GSK3b, RAC1/CDC42, and MTOR) are shown. ACTB is the loading control.\nInvasion molecules RAC1/CDC42 and MMPs are shown. Images were quantified using Image J. 0 h time point is set as 1.0. […] Apoptosis molecules FOXO3, BIM, and c-CASP3 are shown. (FIG. 9C) Invasion/survival signaling downstream of p110p.\n(§6) (FIG. 12A) p110βC2in. CPP: cell-penetrating peptide. Simulated p110βC2in (rainbow as represented in greyscale) is shown. (FIG. 12B) FITC-p110βC2in in LN229/GSCs was imaged using a fluorescence microscope. Upper: FITC; lower: bright view. (FIG. 12C) PI3K/AKT activity affected by 100 μM p110βC2in (+) or C2Scramble-1 (−). (FIG. 12D) MTS Cell viability assay. Cells were treated with 50 μM peptides for 4 days. Student t test was used to determine P values.\nIn FIG. 3 Applicant tested whether Ante-Selectide-18 affects PI3K signaling in GBM cells. […] In contrast, another PI3K/AKT downstream target MTOR was not inhibited by this peptide."}, "p110c": {"molecular_target": "p110c (Homo sapiens, UniProt P42336)", "sequence (P42336 whole entry)": "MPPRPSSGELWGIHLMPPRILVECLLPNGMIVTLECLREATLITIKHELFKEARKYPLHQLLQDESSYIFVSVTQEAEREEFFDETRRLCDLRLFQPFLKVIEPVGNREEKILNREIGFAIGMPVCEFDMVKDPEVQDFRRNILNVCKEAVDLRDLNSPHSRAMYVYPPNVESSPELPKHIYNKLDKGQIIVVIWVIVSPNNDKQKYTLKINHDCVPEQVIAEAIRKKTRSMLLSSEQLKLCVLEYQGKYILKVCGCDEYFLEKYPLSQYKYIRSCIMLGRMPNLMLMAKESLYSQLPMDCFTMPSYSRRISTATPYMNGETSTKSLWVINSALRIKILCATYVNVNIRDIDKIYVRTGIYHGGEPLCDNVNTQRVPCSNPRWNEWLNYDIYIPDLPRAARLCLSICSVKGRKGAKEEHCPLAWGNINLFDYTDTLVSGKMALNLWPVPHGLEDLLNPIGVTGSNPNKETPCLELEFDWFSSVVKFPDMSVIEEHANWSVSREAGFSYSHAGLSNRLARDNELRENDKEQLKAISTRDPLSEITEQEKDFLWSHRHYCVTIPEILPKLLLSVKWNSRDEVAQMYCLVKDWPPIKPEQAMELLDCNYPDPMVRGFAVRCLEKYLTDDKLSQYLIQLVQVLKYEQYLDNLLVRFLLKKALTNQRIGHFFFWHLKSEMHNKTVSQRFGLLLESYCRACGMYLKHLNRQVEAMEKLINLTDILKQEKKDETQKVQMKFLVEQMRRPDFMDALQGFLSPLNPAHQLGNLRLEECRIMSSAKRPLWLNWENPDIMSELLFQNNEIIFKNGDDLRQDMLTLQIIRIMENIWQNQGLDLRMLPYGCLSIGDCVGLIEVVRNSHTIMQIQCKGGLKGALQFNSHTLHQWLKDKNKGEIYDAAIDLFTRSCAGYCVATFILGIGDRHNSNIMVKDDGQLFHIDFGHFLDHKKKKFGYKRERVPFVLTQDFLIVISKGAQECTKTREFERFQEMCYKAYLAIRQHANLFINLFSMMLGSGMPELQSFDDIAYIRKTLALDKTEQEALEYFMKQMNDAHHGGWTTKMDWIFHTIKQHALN", "test": "PI3K subunit activity ELISA", "type": "biochemical", "details": "100 nM", "experimental": "as §4, §5"}, "p110γ": {"molecular_target": "p110γ (Homo sapiens, UniProt P48736)", "sequence (P48736 whole entry)": "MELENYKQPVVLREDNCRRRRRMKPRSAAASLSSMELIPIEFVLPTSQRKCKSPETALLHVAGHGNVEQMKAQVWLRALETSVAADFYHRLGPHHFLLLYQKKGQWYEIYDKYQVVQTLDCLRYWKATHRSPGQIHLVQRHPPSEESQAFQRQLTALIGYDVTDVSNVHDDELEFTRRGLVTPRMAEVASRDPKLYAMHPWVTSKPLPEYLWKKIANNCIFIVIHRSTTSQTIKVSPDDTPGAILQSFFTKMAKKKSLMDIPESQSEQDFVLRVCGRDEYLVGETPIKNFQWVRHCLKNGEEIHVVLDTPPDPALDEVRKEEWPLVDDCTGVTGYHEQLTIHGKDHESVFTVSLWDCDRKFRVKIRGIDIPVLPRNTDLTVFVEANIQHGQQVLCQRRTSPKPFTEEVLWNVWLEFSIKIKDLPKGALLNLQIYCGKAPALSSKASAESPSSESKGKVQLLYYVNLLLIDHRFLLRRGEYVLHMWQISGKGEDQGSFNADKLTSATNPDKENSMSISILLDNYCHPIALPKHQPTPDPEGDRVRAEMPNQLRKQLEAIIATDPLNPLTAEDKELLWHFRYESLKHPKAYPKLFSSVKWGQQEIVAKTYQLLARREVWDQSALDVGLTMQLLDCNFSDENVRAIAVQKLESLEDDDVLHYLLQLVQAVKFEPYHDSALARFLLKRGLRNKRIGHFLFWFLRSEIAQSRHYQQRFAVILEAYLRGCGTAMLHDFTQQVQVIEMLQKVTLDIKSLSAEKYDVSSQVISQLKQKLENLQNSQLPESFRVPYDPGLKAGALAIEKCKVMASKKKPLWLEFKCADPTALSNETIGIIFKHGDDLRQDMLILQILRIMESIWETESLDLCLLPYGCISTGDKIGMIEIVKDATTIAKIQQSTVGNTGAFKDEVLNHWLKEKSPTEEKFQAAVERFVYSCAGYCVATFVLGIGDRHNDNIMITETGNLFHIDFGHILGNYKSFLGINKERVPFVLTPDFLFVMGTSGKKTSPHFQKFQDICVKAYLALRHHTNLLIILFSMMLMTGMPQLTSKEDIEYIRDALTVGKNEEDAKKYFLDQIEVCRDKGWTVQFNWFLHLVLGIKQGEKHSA", "test": "PI3K subunit activity ELISA", "type": "biochemical", "details": "100 nM", "experimental": "as §4, §5"}, "p110δ": {"molecular_target": "p110δ (Homo sapiens, UniProt O00329)", "sequence (O00329 whole entry)": "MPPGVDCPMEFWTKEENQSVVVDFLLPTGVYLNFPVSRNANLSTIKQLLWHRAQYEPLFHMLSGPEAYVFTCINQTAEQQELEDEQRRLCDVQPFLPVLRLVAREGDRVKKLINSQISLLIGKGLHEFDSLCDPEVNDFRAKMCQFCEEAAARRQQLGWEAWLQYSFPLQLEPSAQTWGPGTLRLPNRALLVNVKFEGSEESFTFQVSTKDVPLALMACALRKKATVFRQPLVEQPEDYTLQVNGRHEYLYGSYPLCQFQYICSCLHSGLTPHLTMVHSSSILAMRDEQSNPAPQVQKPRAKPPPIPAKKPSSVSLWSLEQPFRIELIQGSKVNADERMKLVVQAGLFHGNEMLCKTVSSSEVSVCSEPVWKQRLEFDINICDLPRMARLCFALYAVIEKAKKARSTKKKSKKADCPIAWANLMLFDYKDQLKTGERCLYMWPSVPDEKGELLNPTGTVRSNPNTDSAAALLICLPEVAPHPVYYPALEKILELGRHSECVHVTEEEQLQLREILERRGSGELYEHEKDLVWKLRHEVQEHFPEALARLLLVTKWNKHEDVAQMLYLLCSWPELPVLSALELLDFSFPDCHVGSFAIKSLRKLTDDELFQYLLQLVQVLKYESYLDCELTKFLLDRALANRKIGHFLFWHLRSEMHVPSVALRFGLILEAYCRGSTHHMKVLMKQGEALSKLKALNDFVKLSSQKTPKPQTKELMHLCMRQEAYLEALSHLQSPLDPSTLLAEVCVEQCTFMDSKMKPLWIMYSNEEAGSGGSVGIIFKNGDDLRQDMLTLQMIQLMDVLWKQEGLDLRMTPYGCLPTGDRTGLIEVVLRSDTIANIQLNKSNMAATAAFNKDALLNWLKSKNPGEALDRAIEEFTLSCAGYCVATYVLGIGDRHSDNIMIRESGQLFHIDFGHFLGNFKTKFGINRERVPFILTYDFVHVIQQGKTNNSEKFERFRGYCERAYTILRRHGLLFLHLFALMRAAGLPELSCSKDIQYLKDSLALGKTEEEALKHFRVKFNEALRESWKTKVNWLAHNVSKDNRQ", "sequence (P27986 whole entry partner)": "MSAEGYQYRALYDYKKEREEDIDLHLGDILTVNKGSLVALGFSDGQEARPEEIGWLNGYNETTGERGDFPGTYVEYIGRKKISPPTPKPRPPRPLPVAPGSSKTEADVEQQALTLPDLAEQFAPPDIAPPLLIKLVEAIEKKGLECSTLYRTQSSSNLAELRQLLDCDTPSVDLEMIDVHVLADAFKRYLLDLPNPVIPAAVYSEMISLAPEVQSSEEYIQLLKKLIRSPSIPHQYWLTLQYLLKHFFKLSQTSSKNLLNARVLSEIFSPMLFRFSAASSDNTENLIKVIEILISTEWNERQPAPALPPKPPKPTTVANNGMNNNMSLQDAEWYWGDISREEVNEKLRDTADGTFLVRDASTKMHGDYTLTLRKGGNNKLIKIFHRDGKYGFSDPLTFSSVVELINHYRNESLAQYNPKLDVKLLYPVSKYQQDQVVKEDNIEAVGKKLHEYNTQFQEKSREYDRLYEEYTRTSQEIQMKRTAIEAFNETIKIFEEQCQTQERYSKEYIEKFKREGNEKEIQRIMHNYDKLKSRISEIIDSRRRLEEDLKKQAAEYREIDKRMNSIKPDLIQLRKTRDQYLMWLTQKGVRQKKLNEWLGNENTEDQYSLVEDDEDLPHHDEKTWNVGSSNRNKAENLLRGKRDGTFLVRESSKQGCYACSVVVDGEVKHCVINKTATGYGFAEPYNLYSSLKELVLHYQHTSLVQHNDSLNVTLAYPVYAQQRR", "test": "PI3K subunit activity ELISA", "type": "biochemical", "details": "100 nM", "experimental": "as §4, §5"}, "SF295 cells [5]": {"tested_on": "SF295 cells", "test": "MTS cell viability assay", "type": "cell-based", "details": "50 μM peptides, 4 days", "experimental": "as §6\nCell viability was measured by the MTS assay. P values were determined using the student t test or one-way ANOVA. Error bars represent three independent experiments.\nThis scheme has been repeated in experiments presented hereafter. Cell viability was determined using the MTS viability assay. Percentages of cell viability were obtained by normalizing the MTS readings of treatment groups to that of DMSO group. (FIG. 34B) Scores of Excess Over Bliss (EOB) calculated using the Bliss Independence model. The drug combination is synergistic if EOB is more than 0%, additive if EOB equals to 0%, or antagonistic if EOB is less than 0%. […] (FIG. 34D) EOB scores of drug combinations in LN229 and VTC-001 cells. (FIG. 34E) Caspase 3/7 activity in VTC-103 and VTC-001 cells. The activity of cleaved caspase 3/7 (active) was determined using a luminescence assay. Shown are luminescence readings. (FIG. 34F) EOB scores of drug combinations in VTC-103 and VTC-001 cells. […] SF295 cells were subcutaneously injected into immuno-deficient mice. […] Tumor volumes are shown. […] Cell viability was determined using the MTS viability assay. Percentages of cell viability were obtained by normalizing the MTS readings of treatment groups to that of shNS group. […]\nCell viability was determined by the MTS cell viability assay (Promega) as described previously 21,24-27. […] At each hour time point, the absorbance at 490 nm was measured using a FilterMax F3 microplate reader (Molecular Devices, LLC) according to the manufacturer's instructions. Percent cell viability was obtained by dividing the absorbance of treatment groups to those of untreated and respective vehicle control groups."}, "[6]": {"details": "200 μM, 4 days, fresh peptide every day"}}, "note": "Where no end group is shown, it is not given here.", "data": [{"molecule": "Cc1cc([C@@H](C)Nc2ccccc2C(=O)O)c2nc(N3CCOCC3)cc(=O)n2c1", "note": "[AZD6482]", "values": [{"measurement": "PI3K activity", "setting": "PI3K in SK-MEL-147 cells", "value": "not"}, {"measurement": "cytotoxicity", "setting": "p110β^hyper cells; CellTiter Blue", "value": "cytotoxic"}, {"measurement": "sensitivity to AZD6482", "setting": "MDA-MB-435S cells", "value": "not sensitive and not"}, {"measurement": "PI3K activity", "setting": "PI3K in SK-MEL-94 cells", "value": "inactivated PI3K"}]}, {"molecule": "Nc1cc(C(F)(F)F)c(-c2cc(N3CCOCC3)nc(N3CCOCC3)n2)cn1", "note": "[BKM120]", "values": [{"measurement": "cell migration", "setting": "LN229/GSCs [1]", "value": "inhibited the migration"}, {"measurement": "cell migration", "setting": "SF295 cells [2]", "value": "inhibited the migration"}]}, {"molecule": "CC(C)(C)NS(=O)(=O)c1cncc(-c2cc(F)c3nc(N)nn3c2)c1", "note": "[CZC24832]", "values": [{"measurement": "selective inhibition of cell viability", "setting": "p110β^hyper cells", "value": "did not show a selective inhibition of cell viability"}]}, {"molecule": "Cc1c(Cn2c(C)nc3c(C(=O)O)cc(N4CCOCC4)cc32)cccc1C(F)(F)F", "note": "[GSK2636771]", "values": [{"measurement": "tumor growth in mice", "setting": "tumor growth in mice", "value": "slow down tumor growth"}]}, {"molecule": "Nc1nc2cc(-c3ccc4ncc(C(=O)N5CCOCC5)n4c3)ccc2o1", "note": "[MLN1117]", "values": [{"measurement": "selective inhibition of cell viability", "setting": "p110β^hyper cells", "value": "did not show a selective inhibition of cell viability"}]}, {"molecule": "Cc1ccc([N+](=O)[O-])cc1S(=O)(=O)N(C)/N=C/c1cnc2ccc(Br)cn12", "note": "[PIK-75]", "values": [{"measurement": "AKT activation / selectivity", "setting": "AKT", "value": "non-selectively inhibits AKT and ERK"}]}, {"molecule": "Cn1nnc2c(C(N)=O)ncn2c1=O", "note": "[TMZ, temozolomide]", "values": [{"measurement": "IC50", "setting": "LN229/GSCs [3]", "value": 100, "unit": "µM"}]}, {"molecule": "IYKTSKTRSQKTKIKPNT (Scrambled control peptide) [scrambled peptide]", "values": [{"measurement": "activity of p110b", "setting": "p110b", "value": "didn't inactivate p110β"}]}, {"molecule": "RQPKIWFPNRRKPWKKTKKSTKTINPSKYQTIRK [Ante-Selectide-18]", "values": [{"measurement": "MTOR (PI3K/AKT downstream target)", "setting": "[4]; [6]", "value": "not inhibited"}, {"measurement": "active forms of GSK3b and RAC1/CDC42", "setting": "[4]; [6]", "value": "remarkable decrease"}, {"measurement": "levels of phosphorylated form of AKT", "setting": "[4]; [6]", "value": "substantially reduced"}, {"measurement": "activity of p110b", "setting": "p110b", "value": "inhibits the activity"}, {"measurement": "activity of p110b", "setting": "p110b; listed as ante-Selectide-18", "value": "Only Inhibits p110b"}, {"measurement": "IC50", "setting": "p110b; increasing doses", "value": 0.105, "unit": "µM"}, {"measurement": "activity of PI3K subunit p110c", "setting": "p110c", "value": "does not affect"}, {"measurement": "activity of PI3K subunit p110γ", "setting": "p110γ", "value": "does not affect"}, {"measurement": "activity of PI3K subunit p110δ", "setting": "p110δ", "value": "does not affect"}]}, {"molecule": "RRRRRRRRTKKSTKTINPSKYQTIRK (p110bC2in - Selectide-18 with a cell penetrating peptide) [p110βC2in]", "values": [{"measurement": "AKT activity", "setting": "[4]", "value": "blocked AKT activity"}, {"measurement": "cell viability", "setting": "SF295 cells [5]", "value": "suppressed cell viability"}]}, {"molecule": "scramble peptide: control C2Scramble peptide, e.g. TYKTSKRISKQTIKKPNT fused with RRRRRRRR (IYKTSKTRSQKTKIKPNT)", "values": [{"measurement": "AKT activity", "setting": "[4]", "value": "not"}, {"measurement": "cell viability", "setting": "SF295 cells [5]", "value": "not"}]}]}
